Data: US8268962B2, “Molecules for targeting compounds to various selected organs or tissues” (Prosensa Technologies B.V., priority 2007, dated 2012)
Where no end group is shown, it is not given here.

Tests used:
[1] = tested on: mdx mouse; test: In vivo targeting after subcutaneous injection of Cy5-labeled peptide (fluorescence imaging); details: 71 nmol subcutaneously on the back, 48 hours
Protocol: Peptide LGAQSNF was synthesized with the fluorescent label Cy5. This label can be detected with a high sensitivity by a fluorescence imaging system (NightOWL, Berthold Technologies) after systemic (intravenous or subcutaneous) injection into a mouse. This enables monitoring of the distribution across the different organs of a living mouse after injection of the compound. Of this peptide, 71 nmol was injected subcutaneously on the back of an mdx mouse and after 48 hours a picture was taken with the imaging system.
The mouse is lying on its back, and the back paws and an area on the abdomen were first shaved because the hairs on the skin impair detection of the signal. A clear signal could be detected in the back and front paws and in the tail. The signal in the shaved area on the abdomen is likely from abdominal muscle.

[2] = tested on: gastrocnemius muscle of a healthy mouse; details: intramuscular, 5 nmol, after 3 days
Protocol: Uptake of the FAM-labeled peptides QLFTSAS (SEQ ID NO.: 3) and LGAQSNF (SEQ ID NO.: 100) was also tested on the muscle of a healthy mouse. Of each peptide 5 nmol was injected into the gastrocnemius muscle. After 3 days the mice were sacrified and the amount of staining was assessed. Samples were photographed with an inverted fluorescence microscope.

[3] = tested on: gastrocnemius (calf muscle) of mdx mice; details: intramuscular, 2.5-5 nmol, cross-sections after three days
Protocol: FAM-labeled peptides QLFTSAS (SEQ ID NO.: 3) (5 nmol injected), LYQDYSL (SEQ ID NO.: 85) (2.5 nmol injected) and LGAQSNF (SEQ ID NO.: 100) (2.5 nmol injected) were analysed. After three days the mice were sacrificed and the muscles were snap frozen. Cross-sections were cut, fixed with acetone and mounted for analysis with a fluorescence microscope. Cross-sections were cut and photographed with a fluorescence microscope (CCD camera).

[4] = tested on: myotubes obtained from human KM109 myoblast cultures; test: Uptake of FAM-labeled peptides and conjugate into cultured myotubes (fluorescence microscopy); format: cell-based; details: tested on human and mouse myotubes, no fixation
Protocol: Two of the peptides that occurred frequently after selection on both mouse and human myotubes, SPNSIGT and QLFTSAS, were synthesized with a fluorescent label (FAM) and tested for uptake into human and mouse differentiated muscle cells (myotubes). Myotubes were obtained from confluent human KM109 myoblast cultures by 7-14 days of serum deprivation. The culture was subsequently incubated with FAM-labeled peptide and photographed with an inverted fluorescence microscope, without previous fixation.
Peptide QLFTSAS was synthesized with a fluorescent label (FAM) and subsequently conjugated to a 21-mer 2′O-methyl phosphorothioate anti-sense oligonucleotide (AON). Myotubes were obtained from confluent human KM109 myoblast cultures by 7-14 days of serum deprivation. The culture was subsequently incubated with the FAM-labeled conjugate and photographed with an inverted fluorescence microscope, without previous fixation.
Three of the peptides that were found after four rounds of in vivo selection, were synthesized with a fluorescent label (FAM) and tested in cell culture for uptake on human myotubes as described in Example 1.

| Substance | distribution of Cy5-labeled peptide [1] | uptake of FAM-labeled peptide into myofibers of the injected muscle [2] | uptake of FAM-labeled peptide into muscle fibers [3] | uptake of FAM-labeled peptide into cultured myotubes [4] |
| --- | --- | --- | --- | --- |
| Cy5-labeled peptide LGAQSNF: Peptide LGAQSNF synthesized with the fluorescent label Cy5 (also: Cy5 label) | taken up by the abdominal muscle and by muscles in the hindlegs, paws and tail | – | – | – |
| LGAQSNF | – | significant area of uptake | taken up into a large area of muscle fibers and were still visible after 3 days | – |
| LYQDYSL | – | – | taken up into a large area of muscle fibers and were still visible after 3 days | – |
| QLFTSAS (also: FAM label) | – | significant area of uptake | taken up into a large area of muscle fibers and were still visible after 3 days | significant uptake |
| SPNSIGT (also: FAM label) [7-mer peptide from in vitro phage selection on myotubes; tested with FAM label] | – | – | – | significant uptake |
